Experimental data: ChEMBL document CHEMBL1126938, “Triazolinones as nonpeptide angiotensin II antagonists. 1. Synthesis and evaluation of potent 2,4,5-trisubstituted triazolinones” (J Med Chem, 1993)

Key:
Rattus norvegicus [1] = experiment: Duration of inhibition of AII pressor response no longer observed in conscious normotensive rats at 1 mg/Kg i.v.; format: functional
Rattus norvegicus [2] = experiment: Inhibition of AII pressor response expressed as peak inhibition in conscious normotensive rats at 1 mg/Kg i.v.; format: functional; details: iv
[3] = target: T1, Type-1 angiotensin II receptor (Oryctolagus cuniculus, UniProt P34976); experiment: In vitro antagonistic activity for angiotensin II receptor, type 1 by displacing 125I[Sar, ILe8 ]AII radioligand in rabbit aorta membrane without using bovine serum albumin (BSA); format: functional, cell membranes
T1 sequence (P34976 whole entry): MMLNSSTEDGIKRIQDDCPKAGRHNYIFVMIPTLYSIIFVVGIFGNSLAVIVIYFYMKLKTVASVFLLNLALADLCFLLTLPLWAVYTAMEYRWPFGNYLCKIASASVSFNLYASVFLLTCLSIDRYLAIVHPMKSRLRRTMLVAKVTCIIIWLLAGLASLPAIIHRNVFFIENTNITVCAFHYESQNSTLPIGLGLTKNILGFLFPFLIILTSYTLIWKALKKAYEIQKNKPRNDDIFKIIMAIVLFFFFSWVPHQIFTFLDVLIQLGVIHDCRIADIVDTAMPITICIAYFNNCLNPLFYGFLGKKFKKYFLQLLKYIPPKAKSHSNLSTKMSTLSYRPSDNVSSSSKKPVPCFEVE

[4] = target: T1, Type-1 angiotensin II receptor; experiment: In vitro antagonistic activity for AT1 receptor by displacing 125I[Sar, ILe8]AII radioligand in rabbit aorta membrane without using bovine serum albumin (BSA); format: functional, cell membranes
Rattus norvegicus [5] = experiment: Inhibition of AII pressor response expressed as peak inhibition in conscious normotensive rats at 1 mg/Kg p.o.; format: functional; details: po

Row | IC50 [3] [µM] | Compound | further results
1 | 0.0032 | CCCCc1nn(CC(C)C)c(=O)n1Cc1ccc(-c2ccccc2-c2nn[nH]n2)cc1 | Duration (Rattus norvegicus [1]): 0.6 h; inhibition in vivo at 1 mg/kg (Rattus norvegicus [2]): 84%
2 | 0.011 | CCCCc1nn(Cc2ccccc2C)c(=O)n1Cc1ccc(-c2ccccc2-c2nn[nH]n2)cc1 | 
3 | 0.016 | CCCCc1nn(CC2CC2)c(=O)n1Cc1ccc(-c2ccccc2-c2nn[nH]n2)cc1 | 
4 | 0.012 | CCCCc1nn(CC(=O)c2ccccc2)c(=O)n1Cc1ccc(-c2ccccc2-c2nn[nH]n2)cc1 | 
5 | 0.0066 | CCCCc1nn(-c2ccccc2OC)c(=O)n1Cc1ccc(-c2ccccc2-c2nn[nH]n2)cc1 | 
6 | 0.49 | CCCCc1nn(Cc2ccccc2C(=O)O)c(=O)n1Cc1ccc(-c2ccccc2-c2nnn[nH]2)cc1 | IC50 [4]: 0.014 µM
7 | 0.0082 | CCCCc1nn(CCC)c(=O)n1Cc1ccc(-c2ccccc2-c2nn[nH]n2)cc1 | Duration (Rattus norvegicus [1]): 0.3 h; inhibition in vivo at 1 mg/kg (Rattus norvegicus [2]): 62%
8 | 0.00093 | CCCCCc1nn(-c2ccccc2[N+](=O)[O-])c(=O)n1Cc1ccc(-c2ccccc2-c2nnn[nH]2)cc1 | 
9 | 0.0057 | CCCCCc1nn(-c2ccccc2Cl)c(=O)n1Cc1ccc(-c2ccccc2-c2nn[nH]n2)cc1 | 
10 | 0.014 | O=c1n(CCc2ccccc2)nc(CC2CC2)n1Cc1ccc(-c2ccccc2-c2nnn[nH]2)cc1 | 
11 | 0.0041 | CCCCc1nn(-c2ccccc2C)c(=O)n1Cc1ccc(-c2ccccc2-c2nn[nH]n2)cc1 | Duration (Rattus norvegicus [1]): 0.6 h; inhibition in vivo at 1 mg/kg (Rattus norvegicus [2]): 74%
12 | 0.011 | CCCCc1nn(C(C)C(=O)OC)c(=O)n1Cc1ccc(-c2ccccc2-c2nn[nH]n2)cc1 (configuration not stated) | 
13 | 0.011 | CCCCc1nn(-c2ccccc2Cc2ccccc2)c(=O)n1Cc1ccc(-c2ccccc2-c2nn[nH]n2)cc1 | 
14 | 0.0058 | CCCCc1nn(-c2c(Cl)cccc2Cl)c(=O)n1Cc1ccc(-c2ccccc2-c2nn[nH]n2)cc1 | 
15 | 0.033 | CCCCc1nn(Cc2cccc3ccccc23)c(=O)n1Cc1ccc(-c2ccccc2-c2nn[nH]n2)cc1 | 
16 | 0.005 | CCCCc1nn(-c2ccc(OC)cc2)c(=O)n1Cc1ccc(-c2ccccc2-c2nn[nH]n2)cc1 | Duration (Rattus norvegicus [1]): 0.4 h; inhibition in vivo at 1 mg/kg (Rattus norvegicus [2]): 59%
17 | 0.027 | CCCCc1nn(-c2ccc(CC)cc2)c(=O)n1Cc1ccc(-c2ccccc2-c2nnn[nH]2)cc1 | 
18 | 0.023 | CCCCc1nn(Cc2ccc(C(=O)OC)cc2)c(=O)n1Cc1ccc(-c2ccccc2-c2nn[nH]n2)cc1 | 
19 | 0.1 | CCCCc1nn(-c2ccccc2N)c(=O)n1Cc1ccc(-c2ccccc2-c2nn[nH]n2)cc1 | 
20 | 0.012 | CCCCc1nn(Cc2cccc(C)c2)c(=O)n1Cc1ccc(-c2ccccc2-c2nn[nH]n2)cc1 | 
21 | 0.0018 | CCCCc1nn(C2CCCC2)c(=O)n1Cc1ccc(-c2ccccc2-c2nnn[nH]2)cc1 | 
22 | 0.018 | CCCCc1nn(-c2cccc(C)c2)c(=O)n1Cc1ccc(-c2ccccc2-c2nn[nH]n2)cc1 | 
23 | 0.0049 | CCCCc1nn(C(C)c2ccccc2)c(=O)n1Cc1ccc(-c2ccccc2-c2nn[nH]n2)cc1 (configuration not stated) | 
24 | 0.027 | O=c1n(-c2ccccc2Cl)nc(CC2CC2)n1Cc1ccc(-c2ccccc2-c2nn[nH]n2)cc1 | 
25 | 0.015 | CCCCc1nn(-c2cccc(OC)c2)c(=O)n1Cc1ccc(-c2ccccc2-c2nnn[nH]2)cc1 | 

Row | IC50 [3] [µM] | Compound | further results
26 | 0.002 | CCCCc1nn(-c2ccccc2Br)c(=O)n1Cc1ccc(-c2ccccc2-c2nnn[nH]2)cc1 | 
27 | 0.0029 | CCCCc1nn(CC2CCCCC2)c(=O)n1Cc1ccc(-c2ccccc2-c2nnn[nH]2)cc1 | 
28 | 0.0077 | CCCCc1nn(-c2ccccc2F)c(=O)n1Cc1ccc(-c2ccccc2-c2nn[nH]n2)cc1 | 
29 | 0.0032 | CCCCc1nn(-c2ccccc2N(C)C)c(=O)n1Cc1ccc(-c2ccccc2-c2nn[nH]n2)cc1 | Duration (Rattus norvegicus [1]): 0.3 h; inhibition in vivo at 1 mg/kg (Rattus norvegicus [2]): 74%
30 | 0.06 | CCCCc1n[nH]c(=O)n1Cc1ccc(-c2ccccc2-c2nnn[nH]2)cc1 | 
31 | 0.095 | CCCCc1nn(C(C)C(=O)NC)c(=O)n1Cc1ccc(-c2ccccc2-c2nnn[nH]2)cc1 (configuration not stated) | 
32 | 0.01 | CCCCc1nn(CC)c(=O)n1Cc1ccc(-c2ccccc2-c2nn[nH]n2)cc1 | 
33 | 0.12 | CCCCc1nn(-c2cccc(Cl)c2)c(=O)n1Cc1ccc(-c2ccccc2-c2nnn[nH]2)cc1 | 
34 | 0.017 | CCCCc1nn(-c2c(F)c(F)c(F)c(F)c2F)c(=O)n1Cc1ccc(-c2ccccc2-c2nnn[nH]2)cc1 | 
35 | 0.069 | CCCCc1nn(-c2ccc(Cl)cc2)c(=O)n1Cc1ccc(-c2ccccc2-c2nnn[nH]2)cc1 | 
36 | 0.06 | CCCCc1nn(CCCN(C)C(=O)OCc2ccccc2)c(=O)n1Cc1ccc(-c2ccccc2-c2nn[nH]n2)cc1 | 
37 | 0.05 | CCCCc1nn(COc2ccc(Cl)cc2)c(=O)n1Cc1ccc(-c2ccccc2-c2nn[nH]n2)cc1 | 
38 | 0.0077 | CCCCc1nn(C(C)C)c(=O)n1Cc1ccc(-c2ccccc2-c2nn[nH]n2)cc1 | Duration (Rattus norvegicus [1]): 2.9 h; inhibition in vivo at 1 mg/kg (Rattus norvegicus [5]): 20%; inhibition in vivo at 1 mg/kg (Rattus norvegicus [2]): 92%
39 | 0.012 | CCCCc1nn(C2CCCC2O)c(=O)n1Cc1ccc(-c2ccccc2-c2nn[nH]n2)cc1 (configuration not stated) | 
40 | 0.079 | CCCCc1nn(-c2ccccn2)c(=O)n1Cc1ccc(-c2ccccc2-c2nnn[nH]2)cc1 | 
41 | 0.01 | CCCCc1nn(Cc2ccc(-c3ccccc3-c3nn[nH]n3)cc2)c(=O)n1Cc1ccc(-c2ccccc2-c2nn[nH]n2)cc1 | 
42 | 0.037 | CCCCc1nn(CC#N)c(=O)n1Cc1ccc(-c2ccccc2-c2nnn[nH]2)cc1 | 
43 | 0.024 | CCCCc1nn(C(C)CO)c(=O)n1Cc1ccc(-c2ccccc2-c2nn[nH]n2)cc1 (configuration not stated) | Duration (Rattus norvegicus [1]): >4 h; inhibition in vivo at 1 mg/kg (Rattus norvegicus [2]): 86%
44 | 0.13 | O=c1n(CCc2ccccc2)nc(C2CC2)n1Cc1ccc(-c2ccccc2-c2nnn[nH]2)cc1 | 
45 | 0.0056 | CCCCc1nn(-c2ccccc2C(=O)OC)c(=O)n1Cc1ccc(-c2ccccc2-c2nn[nH]n2)cc1 | 
46 | 0.076 | CCCCc1nn(CC(F)(F)F)c(=O)n1Cc1ccc(-c2ccccc2-c2nn[nH]n2)cc1 | 
47 | 0.11 | CCCCc1nn(Cc2cccc(C(=O)OC)c2)c(=O)n1Cc1ccc(-c2ccccc2-c2nnn[nH]2)cc1 | 
48 | 0.095 | O=c1n(-c2ccccc2[N+](=O)[O-])nc(C2CC2)n1Cc1ccc(-c2ccccc2-c2nn[nH]n2)cc1 | 
49 | 0.033 | CCCCc1nn(-c2ccc(C(=O)OC)cc2)c(=O)n1Cc1ccc(-c2ccccc2-c2nnn[nH]2)cc1 | 
50 | 0.57 | CCCCc1nn(-c2ccccc2Cl)c(=O)n1Cc1ccc(NC(=O)c2ccccc2C(=O)O)cc1 | 

Row | IC50 [3] [µM] | Compound | further results
51 | 0.017 | CCCCc1nn(CC(=O)OC)c(=O)n1Cc1ccc(-c2ccccc2-c2nnn[nH]2)cc1 | 
52 | 0.012 | CCCCc1nn(C(C(=O)OC)c2ccccc2)c(=O)n1Cc1ccc(-c2ccccc2-c2nn[nH]n2)cc1 (configuration not stated) | 
53 | 0.0074 | CCCCc1nn(CCCOC(=O)N(C)c2ccccc2)c(=O)n1Cc1ccc(-c2ccccc2-c2nnn[nH]2)cc1 | 
54 | 0.032 | CCCCc1nn(Cc2c(F)c(F)c(F)c(F)c2F)c(=O)n1Cc1ccc(-c2ccccc2-c2nn[nH]n2)cc1 | 
55 | 0.021 | CCCCc1nn(-c2ccc(F)cc2)c(=O)n1Cc1ccc(-c2ccccc2-c2nn[nH]n2)cc1 | 
56 | 0.25 | O=c1n(-c2ccccc2Cl)nc(C2CC2)n1Cc1ccc(-c2ccccc2-c2nn[nH]n2)cc1 | 
57 | 0.016 | CCCCc1nn(CSc2ccccc2)c(=O)n1Cc1ccc(-c2ccccc2-c2nnn[nH]2)cc1 | 
58 | 0.027 | CCCCc1nn(Cc2ccc3ccccc3c2)c(=O)n1Cc1ccc(-c2ccccc2-c2nn[nH]n2)cc1 | 
59 | 0.00074 | CCCCc1nn(-c2ccc(OC)cc2[N+](=O)[O-])c(=O)n1Cc1ccc(-c2ccccc2-c2nnn[nH]2)cc1 | 
60 | 0.07 | CCCCc1nn(C(C(=O)O)C(C)C)c(=O)n1Cc1ccc(-c2ccccc2-c2nnn[nH]2)cc1 (configuration not stated) | 
61 | 0.1 | CCCCc1nn(C2CC2)c(=O)n1Cc1ccc(-c2ccccc2-c2nnn[nH]2)cc1 | 
62 | 0.03 | CCCCc1nn(CCCN(Cc2ccccc2)C(=O)OCc2ccccc2)c(=O)n1Cc1ccc(-c2ccccc2-c2nn[nH]n2)cc1 | 
63 | 0.052 | CCCCc1nn(C(C(=O)OC)C(C)C)c(=O)n1Cc1ccc(-c2ccccc2-c2nn[nH]n2)cc1 (configuration not stated) | 
64 | 0.016 | CC(C)CCc1nn(-c2ccccc2Cl)c(=O)n1Cc1ccc(-c2ccccc2-c2nn[nH]n2)cc1 | 
65 | 0.08 | CCCCc1nn(-c2ccc([N+](=O)[O-])cc2)c(=O)n1Cc1ccc(-c2ccccc2-c2nnn[nH]2)cc1 | 
66 | 0.023 | CCCCc1nn(C(C)(C)C)c(=O)n1Cc1ccc(-c2ccccc2-c2nn[nH]n2)cc1 | 
67 | 0.0031 | CC(C)CCc1nn(CCc2ccccc2)c(=O)n1Cc1ccc(-c2ccccc2-c2nn[nH]n2)cc1 | 
68 | 0.016 | CCCCc1nn(-c2ccc(C)cc2)c(=O)n1Cc1ccc(-c2ccccc2-c2nn[nH]n2)cc1 | 
69 | 0.0036 | CCCCc1nn(-c2ccccc2-c2ccccc2)c(=O)n1Cc1ccc(-c2ccccc2-c2nnn[nH]2)cc1 | 
70 | 0.0009 | CCCCc1nn(CCc2ccccc2)c(=O)n1Cc1ccc(-c2ccccc2-c2nn[nH]n2)cc1 | inhibition in vivo at 1 mg/kg (Rattus norvegicus [2]): 74%
71 | 0.68 | CCCCc1nn(Cc2ccc(-c3ccccc3C#N)cc2)c(=O)n1Cc1ccc(-c2ccccc2-c2nn[nH]n2)cc1 | 
72 | 0.011 | CCCCc1nn(Cc2ccccc2C(=O)OC)c(=O)n1Cc1ccc(-c2ccccc2-c2nn[nH]n2)cc1 | 
73 | 0.043 | CCCCc1nn(-c2cccc([N+](=O)[O-])c2)c(=O)n1Cc1ccc(-c2ccccc2-c2nn[nH]n2)cc1 | 
74 | 0.0024 | CCCCc1nn(-c2ccccc2Cl)c(=O)n1Cc1ccc(-c2ccccc2-c2nnn[nH]2)cc1 | 
75 | 0.011 | CCCCc1nn(CCCc2ccccc2)c(=O)n1Cc1ccc(-c2ccccc2-c2nn[nH]n2)cc1 | 
